{"source": "paper PMC10495264", "about": "(Nature Cell Biology, 2023)", "key": {"[1]": {"biological_target": "T1, mTORC1 (Homo sapiens, UniProt P42345)", "T1 construct": "endogenous mTORC1 complexes were purified from HEK293FT cells; endogenous in cells; host or cells: HEK293FT (immunoprecipitation of endogenous mTOR); the 4E-BP1 substrate was made in E. coli BL21 RP", "assay": "mTORC1 complex stability/composition, mTOR co-immunoprecipitation of Raptor and mLST8", "settings": "1 mM Mal-CoA added to cell lysates before immunoprecipitation", "protocol": "For the mammalian endogenous protein co-immunoprecipitation experiments, cells of a near-confluent 10-cm dish were lysed in CHAPS IP buffer (50 mM Tris pH 7.5, 0.3% CHAPS detergent, 150 mM NaCl, 50 mM NaF, 2 mM Na-vanadate and 0.011 g ml^−1 β-glycerophosphate) supplemented with 1×PhosSTOP phosphatase inhibitors and 1×EDTA-free cOmplete protease inhibitors (11873580001, Roche) for 10 min on ice. The samples were clarified by centrifugation (20,000g, 15 min, 4 °C) and the supernatants were subjected to immunoprecipitation by the addition of 3 μl of each antibody, incubation at 4 °C with rotation for 3 h, followed by incubation (4 °C with rotation) with 30 μl of a pre-washed Protein A agarose bead slurry (cat. no. 11134515001, Roche) for an additional hour. The beads were then washed four times with CHAPS IP wash buffer (50 mM Tris pH 7.5, 0.3% CHAPS detergent, 150 mM NaCl and 50 mM NaF) and boiled in 1×SDS loading buffer. A portion of the samples was kept aside as the input before the addition of antibodies. The samples were analysed by SDS–PAGE and the presence of co-immunoprecipitated proteins was detected by immunoblotting with the appropriate specific antibodies.\nTo test whether Mal-CoA influences mTORC1 complex stability/composition, 1 mM Mal-CoA lithium salt solution was added to the lysates before the immunoprecipitation of mTOR, as described earlier. […]"}, "[2]": {"test_system": "mTORC1", "assay": "mTORC1 activity in HEK293FT cells (WT and knockout lines), phosphorylation of S6K, 4E-BP1, Grb10, TFEB by immunoblot", "assay_type": "cell-based, human", "protocol": "Data represent the median fluorescence intensity of OPP Alexa Fluor 488; n = 6 biological replicates from two independent experiments. b,c,e,g,i,k,l, Data are the mean ± s.e.m. *P < 0.05, **P < 0.005, ***P < 0.0005. […] Source numerical data and unprocessed blots are provided. Source data\nAmino-acid-starvation experiments were carried out as described before[42],[43]. […] For the lipid depletion experiments, cells were cultured in medium containing 10% charcoal-stripped FBS (A3382101, Thermo Fisher Scientific), instead of full FBS, for 24 h before treatments with FASN inhibitors were performed. For FA supplementation, each FA was first conjugated to 10% FA-free BSA (fraction V; cat. no. 10735086001, Roche) for 1 h at 50 °C in a 50:50 volumetric ratio. The BSA-conjugated C16:0, C16:1, C18:1 and C18:2 FAs (100 μM) were then added to the media both 16 h previous to and at the start of the treatment with FASN inhibitors.\nFor standard SDS–PAGE and immunoblotting experiments, cells from a well of a 12-well plate were lysed in 250 μl of ice-cold Triton lysis buffer (50 mM Tris pH 7.5, 1% Triton X-100, 150 mM NaCl, 50 mM NaF, 2 mM Na-vanadate and 0.011 g ml^−1 β-glycerophosphate) supplemented with 1×PhosSTOP phosphatase inhibitors (cat. no. 4906837001, Roche) and 1×cOmplete protease inhibitors (cat. no. 11836153001, Roche) for 10 min on ice. The samples were clarified by centrifugation (20,000g, 15 min, 4 °C) and the supernatants were boiled in 1×SDS sample buffer (5×SDS sample buffer: 350 mM Tris–HCl pH 6.8, 30% glycerol, 600 mM DTT, 12.8% SDS and 0.12% bromophenol blue). The band intensities were quantified using the ImageJ software."}}, "note": "Entries after “also recorded” stand apart in the source; their conditions may differ.", "data": [{"smiles": "CC(C)(COP(=O)(O)OP(=O)(O)OCC1OC(n2cnc3c(N)ncnc32)C(O)C1OP(=O)(O)O)C(O)C(=O)NCCC(=O)NCCSC(=O)CC(=O)O", "note": "(stereo not drawn) [Mal-CoA, malonyl-CoA]", "values": [{"measurement": "mTORC1 stability (interaction of mTOR with Raptor and mLST8)", "setting": "[1]", "result": "did not influence"}, {"measurement": "p-S6K(T389)/S6K, Mean", "setting": "[2]; ED Fig. 4n, relative to DMSO", "result": 0.5757}, {"measurement": "mTORC1 activity after exogenous addition of Mal-CoA", "setting": "[2]; HEK293FT, 250 μM Mal-CoA in medium, 30 min", "result": "significant drop; also recorded: capable of downregulating"}]}]}
